Format in all cases: cell-based
One test deals with T1, APOL1 G2 (Homo sapiens, UniProt O14791, DEL388-389).
T1 construct: expressed in transfected cells; host or cells: HEK293 T-REx clonal line stably expressing GCaMP6f (HEK T-REx/GCaMP6f/APOL1 G2 K6.3), doxycycline induced
T1 sequence (O14791 with tags, fused parts or gaps DEL388-389): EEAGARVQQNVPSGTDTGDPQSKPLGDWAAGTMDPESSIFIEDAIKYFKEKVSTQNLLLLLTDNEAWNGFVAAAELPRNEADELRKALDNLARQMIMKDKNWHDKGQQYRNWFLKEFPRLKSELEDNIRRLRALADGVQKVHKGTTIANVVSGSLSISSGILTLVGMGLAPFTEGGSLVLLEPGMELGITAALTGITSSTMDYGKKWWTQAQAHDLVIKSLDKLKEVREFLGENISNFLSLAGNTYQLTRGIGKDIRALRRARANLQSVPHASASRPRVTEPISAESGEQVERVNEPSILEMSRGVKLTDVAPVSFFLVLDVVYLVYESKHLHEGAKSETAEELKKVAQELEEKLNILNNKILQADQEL
The experiment in a line: APOL1-mediated calcium transport (calcium influx) assay, HEK T-REx/GCaMP6f/APOL1 G2 K6.3 cells, FLIPR TETRA. Particulars: prevention of calcium influx; geometric mean of at least 2 assay runs; † = average of a technical replicate from a single assay run. Put shortly:
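A HEK293 T-REx clone stably expressing GCaMP6f had APOL1 G2 induced with doxycycline (20 ng/mL solution added) for 6 h. Cells were then washed into Ca2+-free Tyrode's buffer (pH 7.4) and preincubated with compounds (duplicate 8-point) for 10 min at room temperature. Ca2+ injection to 5 mM final produced FLIPR GCaMP fluorescence, giving AC50 for influx inhibition (geometric mean, ≥2 runs).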

The subject of test [1] is HEK293 cells overexpressing APOL1 G2. Briefly: APOL1 G2 HEK293 cell rescue assay (reversal of cell death caused by overexpression of APOL1). As to conditions: geometric mean of at least 2 assay runs, † = single assay run. Put shortly: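 Each compound tested in duplicate wells on one plate per run, with values usually the geometric mean across at least two runs on different days, occasionally from one run only. Read-out: concentration giving half-maximal rescue of APOL1 G2 overexpression-induced death of HEK293 cells.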

The test system of test [2] is HEK293 clonal cell line overexpressing APOL1 G1. The experiment in a line: APOL1 G1 HEK293 cell rescue assay (Example B3). Particulars: geometric mean of at least 2 runs, † = single run, ¥ = concentration at 50% rescue estimated (no sigmoidal curve). Put shortly:
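Rescue of cell death caused by APOL1 G1 overexpression was measured in a clonal HEK293 line. Compounds were tested in duplicate on one plate, and EC50s were geometric means across at least two runs on different days. Some values are estimated 50%-rescue concentrations where curve fitting failed.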

The mark [3] stands for this setting: Homo sapiens, HEK293, HEK293 overexpressing APOL1 G2.
Setting [4] is: Homo sapiens, HEK293, HEK293 clonal line overexpressing APOL1 G1.
Where [5] appears, read: HEK293 clonal line overexpressing APOL1 G1.

For `C[C@]1(O)C[C@@H](n2cnc3cc(OCCN4CCC5(CC4)C(=O)Nc4ccc(Cl)cc45)cc(C(F)F)c32)C1` [Compound 445, 5-chloro-1′-(2-{[7-(difluoromethyl)-1-[(cis)-3-hydroxy-3-methylcyclobutyl]-1H-1,3-benzodiazol-5-yl]oxy}ethyl)-1,2-dihydrospiro[indole-3,4′-piperidin]-2-one], on APOL1 G2, the AC50 stood at 1110 nM. Further, the 50% effective concentration (EC50) in test [1] (setting [3]) was 8.15 nM; in test [2] (setting [4]) it was 29.4 nM.
In the case of `CC(COc1ccc(S(C)(=O)=O)cc1)N1CCC2(CC1)C(=O)N(C1CC(O)C1)c1ccc(Cl)cc12` (single isomer, unassigned) [Compound 208, 5-chloro-1′-[(2R) or (2S)-1-(4-methanesulfonylphenoxy)propan-2-yl]-1-[(cis) or (trans)-3-hydroxycyclobutyl]-1,2-dihydrospiro[indole-3,4′-piperidin]-2-one], the AC50 on APOL1 G2 turned out to be 1550 nM. Also, the EC50 in test [1] (HEK293 overexpressing APOL1 G2) was 238 nM; in test [2] (setting [5]), 554 nM.
For `C[C@]1(O)C[C@@H](n2cnc3cc(OCCN4CCC5(CC4)C(=O)Nc4ccc(C#N)cc45)cc(OC(F)F)c32)C1` [Compound 448, 1′-(2-{[7-(difluoromethoxy)-1-[(cis)-3-hydroxy-3-methylcyclobutyl]-1H-1,3-benzodiazol-5-yl]oxy}ethyl)-2-oxo-1,2-dihydrospiro[indole-3,4′-piperidine]-5-carbonitrile], the AC50 on APOL1 G2 is 1140 nM. The EC50 in test [1] (setting [3]) was 112 nM; in test [2] (setting [4]), 687 nM.
As for `NC(=O)c1ncc(OCCN2CCC3(CC2)C(=O)Nc2ccc(Cl)cc23)cn1` [Compound 258, 5-(2-{5-chloro-2-oxo-1,2-dihydrospiro[indole-3,4′-piperidin]-1′-yl}ethoxy)pyrimidine-2-carboxamide], the AC50 at APOL1 G2 came out at 1050 nM. Also, the values for the EC50 in test [1] (setting [3]) and in test [2] (setting [4]) were 444 nM and roughly 1300 nM, respectively.
Regarding `N#Cc1ccc2c(c1)C1(CCN(CCOc3ccc4c(c3)CNC4=O)CC1)C(=O)N2` [Compound 170, 2-oxo-1′-{2-[(1-oxo-2,3-dihydro-1H-isoindol-5-yl)oxy]ethyl}-1,2-dihydrospiro[indole-3,4′-piperidine]-5-carbonitrile], the AC50 at APOL1 G2 was found to be 1310 nM. Also, the concentration for a half-maximal effect (EC50) in test [1] (setting [3]) was 803 nM; in test [2] (setting [4]) it was roughly 2300 nM.
The matching figures for `O=C1Nc2ccc(Cl)cc2C12CCN(CCOc1ccc(C3CCCS3(=O)=O)cc1)CC2` (stereo not drawn) [Compound 175, 2-[4-(2-{5-chloro-2-oxo-1,2-dihydrospiro[indole-3,4′-piperidin]-1′-yl}ethoxy)phenyl]-1λ^6-thiolane-1,1-dione]: 381 nM, 63.1 nM and 153 nM.
For `CN1C(=O)C2(CCN(CCOc3ccc4c(c3)CCN(S(C)(=O)=O)C4)CC2)c2ccccc21` [Compound 55, 1′-{2-[(2-methanesulfonyl-1,2,3,4-tetrahydroisoquinolin-6-yl)oxy]ethyl}-1-methyl-1,2-dihydrospiro[indole-3,4′-piperidin]-2-one] the same measures were less than 284 nM, 983 nM and 1210 nM.
In the case of `CC(COc1ccc(C2(S(C)(=O)=O)COC2)cc1)N1CCC2(CC1)C(=O)Nc1ccc(C#N)cc12` (single isomer, unassigned) [Compound 264, (R) or (S)-1′-{1-[4-(3-methanesulfonyloxetan-3-yl)phenoxy]propan-2-yl}-2-oxo-1,2-dihydrospiro[indole-3,4′-piperidine]-5-carbonitrile], on APOL1 G2, the AC50 came out at 1950 nM. In addition, the results for the EC50 in test [1] (HEK293 overexpressing APOL1 G2) and in test [2] (setting [5]) were 2250 nM and roughly 10000 nM, respectively.
For `CN1C(=O)C2(CCN(CCOc3ccc4c(c3)CCS4(=O)=O)CC2)c2ccccc21` [Compound 32, 5-(2-{1-methyl-2-oxo-1,2-dihydrospiro[indole-3,4′-piperidin]-1′-yl}ethoxy)-2,3-dihydro-1λ^6-benzothiophene-1,1-dione], the half-maximal activity concentration (AC50) at APOL1 G2 was found to be 262 nM. In addition, the EC50 was 785 nM in test [1] (setting [3]) and 1860 nM in test [2] (setting [4]).
The matching figures for `CC(COc1ccc(C2(S(C)(=O)=O)COC2)cc1)N1CCC2(CC1)C(=O)Nc1ccc(C#N)cc12` (stereo not drawn) [Compound 262, 1′-{1-[4-(3-methanesulfonyloxetan-3-yl)phenoxy]propan-2-yl}-2-oxo-1,2-dihydrospiro[indole-3,4′-piperidine]-5-carbonitrile]: 2390 nM, 299 nM and 1780 nM.
Take `CN1C(=O)Cc2cc(OCCN3CCC4(CC3)C(=O)N(C)c3ccccc34)ccc21` [Compound 33, 1-methyl-1′-{2-[(1-methyl-2-oxo-2,3-dihydro-1H-indol-5-yl)oxy]ethyl}-1,2-dihydrospiro[indole-3,4′-piperidin]-2-one]: the AC50 at APOL1 G2 came to 218 nM. Also, the half-maximal effective concentration (EC50) in test [1] (setting [3]) was 1070 nM; in test [2] (setting [4]), greater than 3470 nM.
Turning to `CC(c1ccc(OCCN2CCC3(CC2)C(=O)Nc2ccc(Cl)cc23)cc1)S(C)(=O)=O` (single isomer, unassigned) [Compound 40, 5-chloro-1′-(2-{4-[(1R) or (1S)-1-methanesulfonylethyl]phenoxy}ethyl)-1,2-dihydrospiro[indole-3,4′-piperidin]-2-one], on APOL1 G2, the concentration at half-maximal activity (AC50) is 657 nM. Further, the EC50 in test [1] (HEK293 overexpressing APOL1 G2) was 72 nM; in test [2] (setting [5]), 294 nM.
On to `[2H]C([2H])([2H])N1C(=O)C2(CCN(CCOc3cnc4c(c3)CCC(=O)N4CC(C)(C)O)CC2)c2cc(Cl)ccc21` [Compound 417, 5-chloro-1′-(2-{[8-(2-hydroxy-2-methylpropyl)-7-oxo-5,6,7,8-tetrahydro-1,8-naphthyridin-3-yl]oxy}ethyl)-1-(^2H3)methyl-1,2-dihydrospiro[indole-3,4′-piperidin]-2-one], for which the AC50 on APOL1 G2 stood at 343 nM. Besides, the figures for the EC50 in test [1] (setting [3]) and in test [2] (setting [4]) were 49.2 nM and 104 nM, respectively.
With `CS(=O)(=O)c1ccc(OCCN2CCC3(CC2)C(=O)Nc2c(Cl)cc(C#N)cc23)cc1` [Compound 8, 7-chloro-1′-[2-(4-methanesulfonylphenoxy)ethyl]-2-oxo-1,2-dihydrospiro[indole-3,4′-piperidine]-5-carbonitrile], on APOL1 G2, the half-maximal activity concentration (AC50) was 833 nM. Besides, the EC50 in test [1] (setting [3]) is 598 nM; in test [2] (setting [4]), 1440 nM.
With `CS(=O)(=O)c1ccc(OCCN2CCC3(CC2)C(=O)Nc2ccc(C#N)cc23)cc1C(F)CF` (single isomer, unassigned) [Compound 222, 1′-(2-{3-[(1R or 1S)-1,2-difluoroethyl]-4-methanesulfonyl-phenoxy}ethyl)-2-oxo-1,2-dihydrospiro[in-dole-3,4′-piperidine]-5-carbonitrile], the AC50 at APOL1 G2 came out at 783 nM. Also, the EC50 in test [1] (HEK293 overexpressing APOL1 G2) was 141 nM; in test [2] (setting [5]), 605 nM.
On to `CC(=O)N1CCc2cc(OCCN3CCC4(CC3)C(=O)Nc3ccc(Cl)cc34)ccc2C1` [Compound 194, 1′-{2-[(2-acetyl-1,2,3,4-tetrahydroisoquinolin-6-yl)oxy]ethyl}-5-chloro-1,2-dihydrospiro[indole-3,4′-piperidin]-2-one], for which, on APOL1 G2, the AC50 was found to be 600 nM. The EC50 was 246 nM in test [1] (setting [3]) and 414 nM in test [2] (setting [4]).
On to `CC(c1c(F)cc(OCCN2CCC3(CC2)C(=O)Nc2ccc(Cl)cc23)cc1F)S(C)(=O)=O` (stereo not drawn) [Compound 141, 5-chloro-1′-{2-[3,5-difluoro-4-(1-methanesulfonylethyl)phenoxy]ethyl}-1,2-dihydrospiro[indole-3,4′-piperidin]-2-one], for which the AC50 at APOL1 G2 is 954 nM. Also, the values for the EC50 in test [1] (setting [3]) and in test [2] (setting [4]) were 48 nM and 204 nM, respectively.
The matching figures for `CC(=O)N1CCCc2cc(OCCN3CCC4(CC3)C(=O)Nc3ccc(Cl)cc34)cnc21` [Compound 80, 1′-{2-[(8-acetyl-5,6,7,8-tetrahydro-1,8-naphthyridin-3-yl)oxy]ethyl}-5-chloro-1,2-dihydrospiro[indole-3,4′-piperidin]-2-one]: 375 nM, 65.7 nM and 178 nM.
The matching figures for `CC(C)(O)c1ncc(OCCN2CCC3(CC2)C(=O)Nc2c(I)cc(Cl)cc23)cn1` [Compound 449, 5-chloro-1′-(2-((2-(2-hydroxypropan-2-yl)pyrimidin-5-yl)oxy)ethyl)-7-iodospiro[indoline-3,4′-piperidin]-2-one]: 609 nM, 102 nM and 247 nM.

As usually defined, the AC50 is the concentration at which the activity in the assay is half-maximal. Usually EC50 stands for the midpoint of the concentration-response curve.
